These results are taken from US20210355106A1, “NEW AMINO-PYRIMIDONYL-PIPERIDINYL DERIVATIVES, A PROCESS FOR THEIR PREPARATION AND PHARMACEUTICAL COMPOSITIONS CONTAINING THEM” (LES LABORATOIRES SERVIER, priority 2018, published 2021).

For experiment [1], the target named is T1, USP7 (Homo sapiens, UniProt Q93009, C315A).
T1 construct: 0.25 nM His-His-USP7 (aa208-560, |C315A|) was incubated with compound; His-His (N)
The experiment can be described thus: Inhibition of USP7 by Fluorescence Intensity (FLINT) readings, Ubiquitin-Rhodamine-110 substrate. The class given is biochemical. As to conditions: 0.25 nM His-His-USP7 (aa208-560), 60 minutes at 30° C. preincubation; Ki determined from IC50 according to Cer et al. The procedure, abridged:
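His-tagged USP7 (aa208-560, C315A), 0.25 nM, preincubated with compound 60 min at 30 °C in 100 mM Bicine pH 8.0, 0.01% Triton X-100, 1 mM TCEP, 10% DMSO. Ubiquitin-Rhodamine-110 (50 nM or 4 μM) added; kinetic fluorescence (Ex 485/Em 535 nm) over 21 min; IC50 from 11-point curves, Ki derived from IC50.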

The test system of experiment [2] is Z138 mantle cell lymphoma tumour cell lines. The experiment is described as follows: In vitro cytotoxicity, MTT assay. The experiment is classed as cell-based. The settings on record: Z138 cells, exposed to the test compounds for 96 hours. How it is done: The cytotoxicity studies were evaluated by MTT [3-(4,5-dimethylthiaxol-2-yl)-2,5-diphenyltetrazolium bromide|assay and carried out on Z138 mantle cell lymphoma tumour cell lines. The cells are distributed onto microplates and exposed to the test compounds for 96 hours. MTT is then added for 4 hours and converted by NAD(P)H-dependent cellular oxidoreductase enzymes in forma/an, which has a purple color. The viable cell number is proportional to the production of formazan salts and cell viability can be quantified by the absorbance of the solution at 540 nm with a spectrophotometer (Carmichael et al., Cancer Res. 1987, 47, 936-942).

T1 sequence (Q93009 208-560 C315A): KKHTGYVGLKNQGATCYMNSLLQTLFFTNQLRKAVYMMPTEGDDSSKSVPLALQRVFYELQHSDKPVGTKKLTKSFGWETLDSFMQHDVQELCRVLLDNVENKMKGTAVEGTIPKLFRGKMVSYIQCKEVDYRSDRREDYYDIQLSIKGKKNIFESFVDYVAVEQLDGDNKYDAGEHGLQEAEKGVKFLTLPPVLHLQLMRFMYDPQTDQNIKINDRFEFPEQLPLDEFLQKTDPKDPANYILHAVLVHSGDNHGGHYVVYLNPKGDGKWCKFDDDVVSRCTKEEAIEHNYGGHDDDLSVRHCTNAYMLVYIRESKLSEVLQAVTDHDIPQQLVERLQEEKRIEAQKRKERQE

Regarding `Cc1ccc(-c2nc(C)c(C(=O)N3CC[C@@H](C(=O)N4CCC(O)(Cn5cnc(Oc6ccccc6)c(N)c5=O)CC4)[C@H](c4ccccc4)C3)s2)cn1` [Example 46, 5-amino-3-[(4-hydroxy-1-((3R,4R)-1-[4-methyl-2-(6-methylpyridin-3-yl)-1,3-thiazole-5-carbonyl]-3-phenylpiperidine-4-carbonyl)piperidin-4-yl)methyl)-6-phenoxypyrimidin-4(3H)-one], affinity in experiment [1] was put at a Ki of 2.9 nM. For the same compound, 3.1 nM corresponded to half-maximal inhibition in experiment [2] (Homo sapiens, Z-138) (IC50).

As for `Cc1ccc(-c2nc(C)c(C(=O)N3CC[C@@H](C(=O)N4CCC(O)(Cn5cnc(Oc6ccc(F)cc6)c(N)c5=O)CC4)[C@H](c4ccccc4)C3)s2)cn1` [Example 47, 5-amino-6-(4-fluorophenoxy)-3-[(4-hydroxy-1-{(3R,4R)-1-[4-methyl-2-(6-methylpyridin-3-yl)-1,3-thiazole-5-carbonyl]-3-phenylpiperidine-4-carbonyl}piperidin-4-yl)methyl]pyrimidin-4(3H)-one], the Ki (usually the dissociation constant of the complex between target and ligand, obtained from inhibition or displacement) in experiment [1] is 2.2 nM. Moreover, the IC50 (in general, the concentration that gives 50% inhibition) in experiment [2] (Homo sapiens, Z-138) amounted to 0.92 nM.

As to `Cc1nc(-c2ccc(F)cc2)sc1C(=O)N1CC[C@@H](C(=O)N2CCC(O)(Cn3cnc(Oc4ccc(F)cc4)c(N)c3=O)CC2)[C@H](c2ccccc2)C1` [Example 48, 5-amino-6-(4-fluorophenoxy)-3-[(1-((3R,4R)-1-[2-(4-fluorophenyl)-4-methyl-1,3-thiazole-5-carbonyl]-3-phenylpiperidine-4-carbonyl}-4-hydroxypiperidin-4-yl)methyl]pyrimidin-4(3H)-one], the Ki in experiment [1] is 5.2 nM. Further, the IC50 in experiment [2] (Homo sapiens, Z-138) was determined as 3 nM.

Compound `Cc1ncc(C(=O)N2CC[C@@H](C(=O)N3CCC(O)(Cn4cnc(Oc5ccc(F)cc5)c(N)c4=O)CC3)[C@H](c3ccccc3)C2)s1` [Example 49] returned an inhibition constant Ki in experiment [1] of 24.9 nM. The same compound returned an IC50 in experiment [2] (Homo sapiens, Z-138) of 31 nM.

In experiment [1], `Nc1c(Oc2ccc(F)cc2)ncn(CC2(O)CCN(C(=O)[C@@H]3CCN(Cc4cnc(Br)s4)C[C@H]3c3ccccc3)CC2)c1=O` [Example 50, 5-amino-3-[[1-[(3R,4R)-1-[(2-bromothiazol-5-yl)methyl]-3-phenyl-piperidine-4-carbonyl]-4-hydroxy-4-piperidyl]methyl]-6-(4-fluorophenoxy)pyrimidin-4-one] registered a Ki of 7.89 nM. It took 6.17 nM to reach half-maximal inhibition in experiment [2] (Homo sapiens, Z-138) (IC50).

Consider `Cc1ccc(-c2ncc(CN3CC[C@@H](C(=O)N4CCC(O)(Cn5cnc(Oc6ccc(F)cc6)c(N)c5=O)CC4)[C@H](c4ccccc4)C3)s2)cn1` [Example 51, 5-amino-6-(4-fluorophenoxy)-3-({4-hydroxy-1-[(3R,4R)-1-{{2-(6-methylpyridin-3 yl)-1,3-thiazol-5-yl]methyl}-3-phenylpiperidine-4-carbonyl]piperidin-4-yl}methyl)pyrimidin-4(3H)-one], for which, in experiment [1], the Ki worked out at 2.6 nM. This compound also returned an IC50 in experiment [2] (Homo sapiens, Z-138) of 1.4 nM.

In the case of `Nc1c(Oc2ccc(F)cc2)ncn(CC2(O)CCN(C(=O)[C@@H]3CCN(Cc4ccccc4F)C[C@H]3c3ccccc3)CC2)c1=O` [Example 52, 5-amino-6-(4-fluorophenoxy)-3-[(1-((3R,4R)-1-[(2-fluorophenyl)methyl]-3-phenylpiperidine-4-carbonyl}-4-hydroxypiperidin-4-yl)methyl]pyrimidin-4(3H)-one], in experiment [1], affinity was put at a Ki of 13 nM. The same compound gave an IC50 in experiment [2] (Homo sapiens, Z-138) of 5.4 nM.

In experiment [1], `Cc1ccc(-c2ncc(CN3CC[C@@H](C(=O)N4CC[C@](O)(Cn5cnc(Oc6ccc(F)cc6)c(N)c5=O)C(F)(F)C4)[C@H](c4ccccc4)C3)s2)cn1` [Example 53] gave a Ki of 6.6 nM. The compound further gave an IC50 in experiment [2] (Homo sapiens, Z-138) of 3.4 nM.

The compound `Nc1c(Oc2ccc(F)cc2)ncn(C[C@@]2(O)CCN(C(=O)[C@@H]3CCN(Cc4ccccc4F)C[C@H]3c3ccccc3)CC2(F)F)c1=O` [Example 54, 5-amino-3-{[(4S)-3,3-difluoro-1-((3R,4R)-1-[(2-fluorophenyl)methyl]-3-phenylpiperidine-4-carbonyl}-4-hydroxypiperidin-4-yl}methyl)-6-(4-fluorophenoxy)pyrimidin-4(3H)-one] had a Ki in experiment [1] of 13 nM. For the same compound, half-maximal inhibition in experiment [2] (Homo sapiens, Z-138) (IC50) required 9.1 nM.

For `CCOc1cccc(C(=O)N2CC[C@@H](C(=O)N3CCC(O)(Cn4cnc(Oc5ccc(F)cc5)c(N)c4=O)CC3)[C@H](c3ccccc3)C2)c1` [Example 55, 5-amino-3-({1-[(3R,4R)-1-(3-ethoxybenzoyl)-3-phenylpiperidine-4-carbonyl]-4-hydroxypiperidin-4-yl)methyl)-6-(4-fluorophenoxy)pyrimidin-4(3H)-one], the Ki in experiment [1] came out at 15 nM. In experiment [2] (Homo sapiens, Z-138), the IC50 is 12 nM.

On to `CN1CCN(c2cccc(C(=O)N3CC[C@@H](C(=O)N4CCC(O)(Cn5cnc(Oc6ccc(F)cc6)c(N)c5=O)CC4)[C@H](c4ccccc4)C3)c2)CC1` [Example 56], for which the Ki in experiment [1] is 16 nM. The IC50 in experiment [2] (Homo sapiens, Z-138) amounted to 42 nM.

In turn, `Nc1c(Oc2ccc(F)cc2)ncn(CC2(O)CCN(C(=O)[C@@H]3CCN(S(=O)(=O)c4ccc(Br)s4)C[C@H]3c3ccccc3)CC2)c1=O` [Example 59] returned a Ki in experiment [1] of 35.8 nM. In experiment [2] (Homo sapiens, Z-138), it took 41.1 nM to reach half-maximal inhibition (IC50).

For the compound `Nc1c(Oc2ccc(F)cc2)ncn(CC2(O)CCN(C(=O)[C@@H]3CCN(C(=S)Nc4ccccc4)C[C@H]3c3ccccc3)CC2)c1=O` [Example 60], the Ki in experiment [1] is 75.9 nM. Further, in experiment [2] (Homo sapiens, Z-138), inhibition was half-maximal at 128 nM (IC50).

The compound `Cc1nc(Cc2ccccc2)sc1C(=O)N1CC[C@@H](C(=O)N2CCC(O)(Cn3cnc(Oc4ccc(F)cc4)c(N)c3=O)CC2)[C@H](c2ccccc2)C1` [Example 61, 5-amine-3-({1-[(3R,4R)-1-(2-benzyl-4-methyl-1,3-thiazole-5-carbonyl)-3-phenylpiperidine-4-carbonyl]-4-hydroxypiperidin-4-yl)methyl)-6-(4-fluorophenoxy)pyrimidin-4(3H)-one] displayed a Ki in experiment [1] of 7.9 nM. In experiment [2] (Homo sapiens, Z-138), this compound displayed an IC50 of 17 nM.

`Nc1c(Oc2ccc(F)cc2)ncn(CC2(O)CCN(C(=O)[C@@H]3CCN(Cc4cccnc4)C[C@H]3c3ccccc3)CC2)c1=O` [Example 62, 5-amino-6-(4-fluorophenoxy)-3-[(4-hydroxy-1-{(3R,4R)-3-phenyl-1-[(pyridin-3-yl)methyl]piperidine-4-carbonyl)piperidin-4-yl)methyl]pyrimidin-4(3H)-one]: the Ki in experiment [1] turned out to be 14 nM. Also, in experiment [2] (Homo sapiens, Z-138), the IC50 was determined as 14 nM.

In experiment [1], `Nc1c(Oc2ccc(F)cc2)ncn(CC2(O)CCN(C(=O)[C@@H]3CCN(Cc4cnccn4)C[C@H]3c3ccccc3)CC2)c1=O` [Example 63] had a Ki of 12.4 nM. Moreover, 16.3 nM corresponded to half-maximal inhibition in experiment [2] (Homo sapiens, Z-138) (IC50).

In experiment [1], `Cc1nc(N2CCOCC2)sc1C(=O)N1CC[C@@H](C(=O)N2CCC(O)(Cn3cnc(Oc4ccc(F)cc4)c(N)c3=O)CC2)[C@H](c2ccccc2)C1` [Example 64, 5-amino-6-(4-fluorophenoxy)-3-[(4-hydroxy-1-{(3R,4R)-1-[4-methyl-2-(morpholin-4-yl)-1,3-thiazole-5-carbonyl]-3-phenylpiperidine-4-carbonyl)piperidin-4-yl)methyl]pyrimidin-4(3H)-one] gave a Ki of 6.4 nM. This compound came in with an IC50 in experiment [2] (Homo sapiens, Z-138) of 8.39 nM.

The compound `Cc1nc(N2CCCC2)sc1C(=O)N1CC[C@@H](C(=O)N2CCC(O)(Cn3cnc(Oc4ccc(F)cc4)c(N)c3=O)CC2)[C@H](c2ccccc2)C1` [Example 65, 5-amino-6-(4-fluorophenoxy)-3-[(4-hydroxy-1-{(3R,4R)-1-[4-methyl-2-(pyrrolidin-1-yl)-1,3-thiazole-5-carbonyl]-3-phenylpiperidine-4-carbonyl]piperidin-4-yl)methyl]pyrimidin-4(3H)-one] showed a Ki in experiment [1] of 4.2 nM. Half-maximal inhibition in experiment [2] (Homo sapiens, Z-138) (IC50) was put at 7.66 nM.

On to `Cc1nc(-c2ccccc2)sc1C(=O)N1CC[C@@H](C(=O)N2CCC(O)(Cn3cnc(Oc4ccc(F)cc4)c(N)c3=O)CC2)[C@H](c2ccccc2)C1` [Example 66, 5-amino-6-(4-fluorophenoxy)-3-({4-hydroxy-1-[(3R,4R)-1-(4-methyl-2-phenyl-1,3-thiazole-5-carbonyl)-3-phenylpiperidine-4-carbonyl]piperidin-4-yl}methyl)pyrimidin-4(3H)-one], for which, in experiment [1], the Ki is 6.5 nM. In addition, the IC50 in experiment [2] (Homo sapiens, Z-138) came out at 4.5 nM.

With `Nc1c(Oc2ccc(F)cc2)ncn(CC2(O)CCN(C(=O)[C@@H]3CCN(C(=O)c4sc(Br)c5c4OCCO5)C[C@H]3c3ccccc3)CC2)c1=O` [Example 67], the Ki in experiment [1] is 14 nM. The compound also registered a half-inhibitory concentration (IC50) in experiment [2] of 27.8 nM.

In experiment [1], `Cc1ccc(-c2sc(C(=O)N3CC[C@@H](C(=O)N4CCC(O)(Cn5cnc(Oc6ccc(F)cc6)c(N)c5=O)CC4)[C@H](c4ccccc4)C3)c3c2OCCO3)cn1` [Example 68, 5-amino-6-(4-fluorophenoxy)-3-[(4-hydroxy-1-{(3R,4R)-1-[7-(6-methylpyridin-3-yl)-2,3-dihydrothieno[3,4-b][1,4]dioxine-5-carbonyl]-3-phenylpiperidine-4-carbonyl]piperidin-4-yl)methyl]pyrimidin-4(3H)-one] returned a Ki of 4 nM. This compound returned an IC50 in experiment [2] (Homo sapiens, Z-138) of 6.67 nM.

The compound `Nc1c(Oc2ccc(F)cc2)ncn(CC2(O)CCN(C(=O)[C@@H]3CCN(S(=O)(=O)c4cccc(Br)c4)C[C@H]3c3ccccc3)CC2)c1=O` [Example 69, 5-amino-3-[[1-[(3R,4R)-1-(3-bromophenyl)sulfonyl-3-phenyl-piperidine-4-carbonyl]-4-hydroxy-4-piperidyl]methyl]-6-(4-fluorophenoxy)pyrimidin-4-one] showed a Ki in experiment [1] of 18.1 nM. Besides, the IC50 in experiment [2] (Homo sapiens, Z-138) stood at 21.7 nM.
